Structures are written as SMILES. Active and inactive are the calls of the source. No cut-off for these calls is given here.

One data set concerns MGC-803. Put plainly: Antiproliferative activity against human MGC-803 cells assessed as reduction in cell viability measured for 48 hrs by MTT assay. It counts as functional, cell-based. To be noted: MGC-803, 48 h. Background: Tetrazolium assays rely on reduction of a dye to a coloured formazan, in cell work by metabolically active cells.
The subject of data set [1] is MCF7. The data set is described as follows: Antiproliferative activity against human MCF7 cells assessed as reduction in cell viability measured for 48 hrs by MTT assay. To be noted: MCF7, 48 h. It counts as functional, cell-based.
In another data set the test system is U-937. Put plainly: Antiproliferative activity against human U-937 cells assessed as reduction in cell viability measured for 48 hrs by MTT assay. Type of data set: functional, cell-based. To be noted: U-937, 48 h.
The subject of the next data set is NIH3T3. Put plainly: Antiproliferative activity against mouse 3T3 cells assessed as reduction in cell viability at 100 uM measured for 48 hrs by MTT assay relative to control. It counts as toxicity, cell-based. To be noted: nih3t3, 48 h.
Data set [2] has as its target DNA topoisomerase 2-alpha (Homo sapiens) (UniProt P11388). Put plainly: Poison activity at human topoisomerase 2 assessed as stabilization of enzyme-DNA cleavage complex by measuring linear DNA formation at 100 uM incubated for 6 mins by EtBr staining based UV light analysis.
For data set [3], the system named is MCF7. The data set is described as follows: Induction of apoptosis in human MCF7 cells assessed as viable cells at 10 uM incubated for 48 hrs by AnnexinV-FITC/propidium iodide staining based flow cytometry analysis (reference value: 99.2 %). Type of data set: functional. Conditions: read-out: Activity. (In general: A flow cytometer gives signals particle by particle.)

Data set [4] deals with MCF7. The data set is described as follows: Induction of apoptosis in human MCF7 cells assessed as early apoptotic cells at 10 uM incubated for 48 hrs by AnnexinV-FITC/propidium iodide staining based flow cytometry analysis (reference value: 0.28 %). It counts as functional.
For data set [5], the system named is MCF7. The data set is described as follows: Induction of apoptosis in human MCF7 cells assessed as late apoptotic cells at 10 uM incubated for 48 hrs by AnnexinV-FITC/propidium iodide staining based flow cytometry analysis (reference value: 0.015 %). It counts as functional.
The subject of data set [6] is MCF7. Put plainly: Induction of apoptosis in human MCF7 cells assessed as necrotic cells at 10 uM incubated for 48 hrs by AnnexinV-FITC/propidium iodide staining based flow cytometry analysis (reference value: 0.55 %). It counts as functional.
Data set [7] concerns MCF7. Put plainly: cells. Conditions: Homo sapiens, time 48 hrs. Type of data set: functional.
Description: Inhibition of cell migration in human MCF7 cells assessed as reduction in cell migration at 1 uM measured for 48 hrs by wound healing assay based microscopic analysis (Rvb = 70.25%)
Data set [8] deals with MCF7. The data set is described as follows: cells. It counts as functional. Conditions: Homo sapiens, time 48 hrs. The source holds these as a separate data set.
Description: Inhibition of cell migration in human MCF7 cells assessed as reduction in cell migration at 2.5 uM measured for 48 hrs by wound healing assay based microscopic analysis (Rvb = 70.25%)

Chain of DNA topoisomerase 2-alpha (Homo sapiens) (P11388 whole entry): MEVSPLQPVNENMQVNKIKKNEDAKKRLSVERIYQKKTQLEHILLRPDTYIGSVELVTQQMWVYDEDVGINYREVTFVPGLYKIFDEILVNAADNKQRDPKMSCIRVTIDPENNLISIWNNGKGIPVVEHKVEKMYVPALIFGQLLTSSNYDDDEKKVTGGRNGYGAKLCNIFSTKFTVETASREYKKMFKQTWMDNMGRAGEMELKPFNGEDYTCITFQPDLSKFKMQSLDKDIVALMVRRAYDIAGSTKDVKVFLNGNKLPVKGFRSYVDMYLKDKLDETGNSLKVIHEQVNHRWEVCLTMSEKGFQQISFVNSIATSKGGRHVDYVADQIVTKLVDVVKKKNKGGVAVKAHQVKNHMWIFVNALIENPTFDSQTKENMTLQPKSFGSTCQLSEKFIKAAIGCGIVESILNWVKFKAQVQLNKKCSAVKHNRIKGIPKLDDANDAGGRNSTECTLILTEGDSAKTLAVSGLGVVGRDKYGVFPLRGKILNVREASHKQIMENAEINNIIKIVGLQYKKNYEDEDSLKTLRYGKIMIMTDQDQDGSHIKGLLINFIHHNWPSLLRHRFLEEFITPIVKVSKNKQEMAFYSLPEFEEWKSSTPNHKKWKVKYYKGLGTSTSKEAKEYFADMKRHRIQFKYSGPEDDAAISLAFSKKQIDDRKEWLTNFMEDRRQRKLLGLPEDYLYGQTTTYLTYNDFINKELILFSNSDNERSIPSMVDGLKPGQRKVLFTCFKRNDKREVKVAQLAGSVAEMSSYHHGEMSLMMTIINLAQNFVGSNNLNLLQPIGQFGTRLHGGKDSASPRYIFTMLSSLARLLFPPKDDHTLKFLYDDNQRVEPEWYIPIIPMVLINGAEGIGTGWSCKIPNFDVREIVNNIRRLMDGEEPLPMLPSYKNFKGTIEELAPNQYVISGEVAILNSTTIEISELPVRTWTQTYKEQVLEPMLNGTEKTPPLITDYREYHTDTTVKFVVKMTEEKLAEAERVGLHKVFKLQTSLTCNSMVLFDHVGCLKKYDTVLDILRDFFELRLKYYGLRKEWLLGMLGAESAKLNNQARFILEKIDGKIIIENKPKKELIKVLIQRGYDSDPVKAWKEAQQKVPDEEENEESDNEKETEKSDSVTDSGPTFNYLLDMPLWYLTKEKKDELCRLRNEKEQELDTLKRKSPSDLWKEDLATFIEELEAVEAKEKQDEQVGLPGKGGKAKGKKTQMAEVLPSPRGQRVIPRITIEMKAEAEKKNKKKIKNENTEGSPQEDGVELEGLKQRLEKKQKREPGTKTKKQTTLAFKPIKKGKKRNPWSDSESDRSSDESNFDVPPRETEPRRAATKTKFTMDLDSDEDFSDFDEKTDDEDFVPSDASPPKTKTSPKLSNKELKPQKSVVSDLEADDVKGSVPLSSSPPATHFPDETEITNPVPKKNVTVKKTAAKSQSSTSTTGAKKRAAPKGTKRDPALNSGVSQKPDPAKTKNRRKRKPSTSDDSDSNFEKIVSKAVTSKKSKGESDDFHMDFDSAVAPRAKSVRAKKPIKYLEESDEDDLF

Turning to `COc1cc([C@@H]2c3cc4c(cc3[C@@H](O[C@@H]3O[C@@H]5CO[C@@H](C)O[C@H]5[C@H](O)[C@H]3O)[C@H]3COC(=O)[C@H]23)OCO4)cc(OC)c1O` [ETOPOSIDE], the IC50 was found to be 10.8 µM in the data set on MGC-803, 29.7 µM with MCF7 [1] and 22.9 µM in the data set on U-937. Also, the Activity in the data set on NIH3T3 was 21.47%; in the data set on MCF7 [4], 4.41%; in the data set on MCF7 [5], 2.48%; in the data set with MCF7 [6] it was 0.37%. Moreover, the outcome in [2] was Active. Besides, the viability at 10 µM in the data set on MCF7 [3] was 92.7%. For the same compound, the inhibition at 1 µM with MCF7 [7] is 64.7%. The same compound showed an inhibition at 2.5 µM in the data set with MCF7 [8] of 47.1%.

With `O=C(CCCCCCC(=O)Nc1ccccc1)NO` [VORINOSTAT], the IC50 in the data set with MGC-803 and in the data set with U-937 was 1.58 µM in each case. Besides, the Activity with NIH3T3 is listed as 14.98%; in the data set on MCF7 [4], 35.2%; in the data set with MCF7 [5], 19.7%; with MCF7 [6], 0.41%. In the data set with MCF7 [3], the viability at 10 µM was 44.7%.

Broadly, the IC50 is the concentration at which inhibition is half-maximal. By inhibition is commonly meant the percentage by which the read-out fell short of the control. Low readings indicate little suppression, high ones strong suppression.
